From ChEMBL document CHEMBL1201862, “PubChem BioAssay data set” (2004)
Values belong to the molecule of their own block, whether it stands above or below them. Active and inactive are the calls of the source.

How the values were obtained:
Cytochrome P450 3A4 = Cytochrome P450 3A4 (Homo sapiens, UniProt P08684);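 further: CYP3A4 tested as one member of a cytochrome P450 panel screen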
[1] = molecular target: T1, E3 ubiquitin-protein ligase XIAP (Homo sapiens, UniProt P98170); experiment: Counter Screen using XIAP-Bir3 for Chemical Antagonists of Bir1/2 domains of IAP-family anti-apoptotic proteins. [Related pubchem assays (depositor defined):AID1018, AID1449, AID1514, AID1638, AID1749, AID1750, AID488957, AID488963]
T1 sequence (P98170 whole entry): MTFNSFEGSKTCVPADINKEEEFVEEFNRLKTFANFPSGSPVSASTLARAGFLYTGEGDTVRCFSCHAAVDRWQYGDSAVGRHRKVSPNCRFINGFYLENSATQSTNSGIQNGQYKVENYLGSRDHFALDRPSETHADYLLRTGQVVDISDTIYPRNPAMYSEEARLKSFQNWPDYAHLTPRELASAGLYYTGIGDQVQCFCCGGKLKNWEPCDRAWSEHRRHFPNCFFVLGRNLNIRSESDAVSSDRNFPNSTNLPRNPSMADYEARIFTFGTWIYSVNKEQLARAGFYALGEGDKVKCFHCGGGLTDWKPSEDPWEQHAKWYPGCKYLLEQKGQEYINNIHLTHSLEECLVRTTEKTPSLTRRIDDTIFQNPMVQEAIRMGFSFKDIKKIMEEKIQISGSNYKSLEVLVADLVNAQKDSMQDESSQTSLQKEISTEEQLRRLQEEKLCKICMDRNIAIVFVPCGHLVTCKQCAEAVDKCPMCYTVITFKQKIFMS

[2] = molecular target: T1, E3 ubiquitin-protein ligase XIAP; experiment: XIAP antagonists, biochemical, IAP family, fluorescence polarization (AID 1018); type: functional
Cytochrome P450 2C19 = Cytochrome P450 2C19 (Homo sapiens, UniProt P33261); experiment: Cytochrome panel assay with activity outcomes. Panel member name: p450-cyp2c19 Compounds with AC50 equal or less than 10 uM are considered active; type: functional; conditions: read-out: AC50
Sequence of Cytochrome P450 2C19 (P33261 whole entry): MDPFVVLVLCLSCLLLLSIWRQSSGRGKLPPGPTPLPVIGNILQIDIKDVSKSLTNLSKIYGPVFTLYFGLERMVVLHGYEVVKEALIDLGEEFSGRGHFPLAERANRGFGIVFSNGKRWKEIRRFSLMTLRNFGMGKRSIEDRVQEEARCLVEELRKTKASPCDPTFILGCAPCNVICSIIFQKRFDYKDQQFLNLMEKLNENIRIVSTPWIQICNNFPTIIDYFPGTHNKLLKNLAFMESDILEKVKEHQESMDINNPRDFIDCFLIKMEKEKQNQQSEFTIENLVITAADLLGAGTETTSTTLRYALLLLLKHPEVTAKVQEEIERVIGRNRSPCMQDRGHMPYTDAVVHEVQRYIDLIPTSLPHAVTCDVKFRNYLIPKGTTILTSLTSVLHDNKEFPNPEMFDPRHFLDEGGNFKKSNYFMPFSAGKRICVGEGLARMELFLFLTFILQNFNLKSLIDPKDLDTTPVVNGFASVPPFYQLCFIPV

[3] = molecular target: 72 kDa type IV collagenase (Homo sapiens, UniProt P08253); experiment: Dose Response validation of uHTS RPN11 inhibitor hits using a MMP-2 Fluorescence assay.; type: functional
Sequence of 72 kDa type IV collagenase (P08253 whole entry): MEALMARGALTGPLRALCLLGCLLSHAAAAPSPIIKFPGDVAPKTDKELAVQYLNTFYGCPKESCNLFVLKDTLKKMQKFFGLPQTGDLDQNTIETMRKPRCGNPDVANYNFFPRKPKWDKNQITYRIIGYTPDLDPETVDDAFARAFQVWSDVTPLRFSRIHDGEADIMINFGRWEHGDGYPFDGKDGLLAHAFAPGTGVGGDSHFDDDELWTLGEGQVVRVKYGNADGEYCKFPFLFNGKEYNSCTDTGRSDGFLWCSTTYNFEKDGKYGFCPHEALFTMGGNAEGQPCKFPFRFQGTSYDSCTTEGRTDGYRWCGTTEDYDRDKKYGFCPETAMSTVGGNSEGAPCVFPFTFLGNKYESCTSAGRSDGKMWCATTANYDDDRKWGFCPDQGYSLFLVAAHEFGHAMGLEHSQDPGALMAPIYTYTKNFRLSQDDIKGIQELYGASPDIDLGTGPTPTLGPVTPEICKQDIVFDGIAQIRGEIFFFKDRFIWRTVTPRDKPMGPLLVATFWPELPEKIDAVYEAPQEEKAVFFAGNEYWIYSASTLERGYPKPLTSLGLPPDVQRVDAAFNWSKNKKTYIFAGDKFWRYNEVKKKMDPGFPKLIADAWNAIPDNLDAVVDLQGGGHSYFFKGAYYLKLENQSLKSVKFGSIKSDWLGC

[4] = molecular target: 26S proteasome non-ATPase regulatory subunit 14 (Homo sapiens, UniProt O00487); experiment: inhibition of proteasome subunit RPN11 – biochemical, fluorescence polarization, uHTS hits, confirmation (AID 602368); type: functional
Sequence of 26S proteasome non-ATPase regulatory subunit 14 (O00487 whole entry): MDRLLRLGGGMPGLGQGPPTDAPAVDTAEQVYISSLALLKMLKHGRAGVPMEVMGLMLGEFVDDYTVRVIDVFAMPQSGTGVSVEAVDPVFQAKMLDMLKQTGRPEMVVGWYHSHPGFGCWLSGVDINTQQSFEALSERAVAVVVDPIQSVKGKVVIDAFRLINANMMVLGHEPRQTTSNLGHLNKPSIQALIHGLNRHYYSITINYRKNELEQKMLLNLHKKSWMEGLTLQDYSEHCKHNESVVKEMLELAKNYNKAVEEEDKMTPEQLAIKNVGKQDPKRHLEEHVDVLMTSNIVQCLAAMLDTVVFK

Prothrombin = Prothrombin (Bos taurus, UniProt P00735); experiment: thrombin inhibition, dose response, biochemical, fluorescence polarization, uHTS hits (AID 602369); type: functional
Hexokinase = molecular target: T2, Hexokinase (Trypanosoma brucei, UniProt Q38C41); experiment: Confirmation assay for inhibitors of Trypanosoma brucei hexokinase 1-Analogue-first series. [Related pubchem assays (depositor defined):AID1430, AID1632, AID2516, AID2560, AID2579, AID2600, AID449725, AID492951]; type: functional
T2 sequence (Q38C41 whole entry): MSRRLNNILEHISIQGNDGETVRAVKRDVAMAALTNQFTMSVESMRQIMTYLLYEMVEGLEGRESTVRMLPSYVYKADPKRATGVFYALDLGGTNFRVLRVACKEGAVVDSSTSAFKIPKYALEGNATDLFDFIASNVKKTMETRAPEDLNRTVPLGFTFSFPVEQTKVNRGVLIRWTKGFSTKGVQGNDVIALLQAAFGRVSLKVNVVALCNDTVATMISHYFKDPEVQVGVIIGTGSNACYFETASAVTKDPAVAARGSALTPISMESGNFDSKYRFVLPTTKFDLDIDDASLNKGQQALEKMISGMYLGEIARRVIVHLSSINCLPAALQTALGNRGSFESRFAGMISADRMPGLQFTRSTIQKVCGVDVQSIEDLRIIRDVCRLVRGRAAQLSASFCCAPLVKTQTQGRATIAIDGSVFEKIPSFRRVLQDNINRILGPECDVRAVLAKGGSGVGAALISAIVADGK

P388 = experiment: cells; type: functional; conditions: Mus musculus
P388/ADR = experiment: cells; type: functional; conditions: Mus musculus
SN12K1 = experiment: cells; type: functional; conditions: Homo sapiens
[5] = molecular target: T3, Carboxy-terminal domain RNA polymerase II polypeptide A small phosphatase 1 (Homo sapiens, UniProt Q9GZU7); experiment: inhibitors of CTDSP1, concentration-response testing, biochemical assay, absorbance-based, actives from ultra-high-throughput screening (AID 540297); type: functional
T3 sequence (Q9GZU7 whole entry): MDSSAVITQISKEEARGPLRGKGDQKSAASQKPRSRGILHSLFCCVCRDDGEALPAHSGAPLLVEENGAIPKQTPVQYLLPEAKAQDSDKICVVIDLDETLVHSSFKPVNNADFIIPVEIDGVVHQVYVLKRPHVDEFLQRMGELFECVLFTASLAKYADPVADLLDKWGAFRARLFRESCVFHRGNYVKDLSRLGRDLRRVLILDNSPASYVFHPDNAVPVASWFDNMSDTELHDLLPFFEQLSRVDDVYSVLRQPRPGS

Sequence of Cytochrome P450 3A4 (P08684 whole entry): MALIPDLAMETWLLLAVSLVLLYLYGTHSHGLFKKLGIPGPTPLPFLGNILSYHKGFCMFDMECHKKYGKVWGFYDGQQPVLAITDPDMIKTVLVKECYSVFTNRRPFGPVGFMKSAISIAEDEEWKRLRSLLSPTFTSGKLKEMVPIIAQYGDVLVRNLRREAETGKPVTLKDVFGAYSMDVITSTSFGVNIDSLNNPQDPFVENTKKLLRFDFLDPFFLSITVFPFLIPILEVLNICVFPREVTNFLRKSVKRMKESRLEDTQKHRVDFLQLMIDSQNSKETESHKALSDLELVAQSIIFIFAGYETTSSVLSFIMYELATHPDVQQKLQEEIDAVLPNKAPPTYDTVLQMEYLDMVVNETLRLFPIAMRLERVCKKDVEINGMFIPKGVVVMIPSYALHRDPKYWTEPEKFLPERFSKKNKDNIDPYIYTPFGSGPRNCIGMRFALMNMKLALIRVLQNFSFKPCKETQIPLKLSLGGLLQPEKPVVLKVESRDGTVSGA

Compound: COc1ccc(C(N)=NOC(=O)Cc2ccc(C)cc2)cc1
IC50 [1]: > 100 µM (inactive)
IC50 [2]: > 100 µM (not active)

Compound: COc1ccc(S(=O)(=O)Nc2cc(Cl)ccc2C(=O)O)cc1
IC50 (Hexokinase): > 25 µM (inactive)

Compound: C/C(=N\NC(=S)N1CC2CCC(CC2)C1)c1nccs1
GI50 (P388): < 0.01 µM (active)
GI50 (P388/ADR): < 0.01 µM (active)
GI50 (SN12K1): < 0.01 µM (active)

Compound: Cc1ccc(CSCC(=O)N/N=C/c2ccc(OCC(=O)Nc3ccc(C)cc3)cc2)cc1
IC50 [3]: > 100 µM (inactive)
IC50 [5]: 3.43 µM (active)
IC50 [4]: 11.9 µM (active)
IC50 (Prothrombin): 96.9 µM (active)

Compound: O=C(CCl)NC(Cc1ccc(F)cc1)C(=O)O (stereo not given)
GI50 (P388): > 100 µM (inactive)
GI50 (P388/ADR): > 100 µM (inactive)
GI50 (SN12K1): > 100 µM (inactive)

Compound: Cc1c2ccnc(C(F)(F)F)c2cc2c1[nH]c1ccccc12
GI50 (P388): > 125 µM (inactive)
GI50 (P388/ADR): 78.9 µM (inactive)
GI50 (SN12K1): 58.5 µM (inactive)

Compound: CC(O)C(O)C(N)CC=O (stereo not given)
GI50 (P388): > 500 µM (inactive)
GI50 (P388/ADR): > 500 µM (inactive)
GI50 (SN12K1): > 500 µM (inactive)

Second part, the molecule after the results:

AC50 (Cytochrome P450 3A4): inconclusive
Compound: CCOC(=O)c1c(C)nc2c(c1-c1ccccc1)C(=O)CCC2

AC50 (Cytochrome P450 3A4): inconclusive
AC50 (Cytochrome P450 2C19): 14.1 µM (inconclusive)
Compound: O=C(C1CCN(S(=O)(=O)N2CCOCC2)CC1)N1CCN(Cc2ccccc2)CC1

IC50 [3]: > 100 µM (inactive)
IC50 [4]: 33.1 µM (active)
IC50 (Prothrombin): 47.9 µM (active)
Compound: COc1ccccc1NC(=O)CCc1nc2sc3c(c2c(=O)[nH]1)CCCC3
